Source: patent publication US20250326767A1, “NOVEL BENZOTHIAZOLE DERIVATIVES” (CARNA BIOSCIENCES, INC., priority 2021, published 2025)

Tests used:
Assay in all cases: Inhibition test on activity of DYRK family, mobility shift assay (MSA)
Format in all cases: biochemical
[1] = biological target: T1, DYRK1A (Homo sapiens, UniProt Q13627); details: ATP 100 μM; FITC-labeled DYRKtide peptide substrate; room temperature 1 hour; read-out: Inhibitory Activity DYRK1A (IC50 class)
T1 construct: purchased Carna Biosciences, Inc. 04-130
Protocol: (§1) The kinase activity was measured by mobility shift assay (MSA) method using QuickScout Screening Assist™ MSA (commercially available kit manufactured by Carna Biosciences, Inc.). The substrate of the kinase reaction used was an FITC-labeled DYRKtide peptide included in the kit. An assay buffer [20 mM HEPES, 0.01% Triton X-100™, 2 mM dithiothreitol, pH 7.5] was used to create a substrate mixture solution with a substrate (4 μM), MgCl2 (20 mM), and ATP (DYRK1A: 100 μM; DYRKIB: 200 μM; DYRK2:40 μM; and DYRK3:20 μM). In addition, kinases (DYRK1A: manufactured by Carna Biosciences, Inc., Cat. No. 04-130; DYRK1B: manufactured by Carna Biosciences, Inc., Cat. No. 04-131; DYRK2; manufactured by Carna Biosciences, Inc., Cat. No. 04-132; and DYRK3; manufactured by Carna Biosciences, Inc., Cat. No. 04-133) were diluted with the assay buffer to prepare enzyme solutions (DYRK1A: 0.2 ng/μL; DYRK1B: 0.08 ng/μL; DYRK2: 0.04 ng/μL; and DYRK3:0.25 ng/μL). The 10 mM solution of the test compound in DMSO was further diluted with DMSO to 10 levels of the concentration (0.00003 mM, 0.0001 mM, 0.0003 mM, 0.001 mM, 0.003 mM, 0.01 mM, 0.03 mM, 0.1 mM, 0.3 mM, and 1 mM), each of which was subjected to 25-fold dilution with the assay buffer to obtain a drug solution (4% DMSO solution). 5 μL of the drug solution or a control solution (4% DMSO-assay buffer), 5 μL of the substrate mixture solution, and 10 μL of the enzyme solution were mixed in the wells of a polypropylene 384-well plate and allowed to react at room temperature for 1 hour, and then the reaction was quenched by adding 60 μL of the termination buffer included in the kit. Subsequently, the quantities of the substrates(S) and the phosphorylated substrate (P) in the reaction solution were measured using LabChip EZ Reader II system (manufactured by Caliper Life Sciences) according to the protocol of the assay kit.
(§2) The heights of the peaks of the “substrate” and the “phosphorylated substrate” were expressed as S and P, respectively, and a blank containing the assay buffer instead of the enzyme solution was also measured.
(§3) The inhibition rate (%) of the test compound was calculated according to the following equation: […]
(§4) wherein, A, B, and C represent P/(P+S) of the blank well, P/(P+S) of the control solution well, and P/(P+S) of the compound-containing well, respectively.
(§5) The IC50 value was calculated via a regression analysis of the inhibition rate and the test compound concentration (logarithmic value).

[2] = biological target: T2, DYRK3 (Homo sapiens, UniProt O43781); details: ATP 20 μM; FITC-labeled DYRKtide peptide substrate; room temperature 1 hour; read-out: Inhibitory Activity DYRK3 (IC50 class)
T2 construct: purchased Carna Biosciences, Inc. 04-133
T2 sequence (O43781 1-588): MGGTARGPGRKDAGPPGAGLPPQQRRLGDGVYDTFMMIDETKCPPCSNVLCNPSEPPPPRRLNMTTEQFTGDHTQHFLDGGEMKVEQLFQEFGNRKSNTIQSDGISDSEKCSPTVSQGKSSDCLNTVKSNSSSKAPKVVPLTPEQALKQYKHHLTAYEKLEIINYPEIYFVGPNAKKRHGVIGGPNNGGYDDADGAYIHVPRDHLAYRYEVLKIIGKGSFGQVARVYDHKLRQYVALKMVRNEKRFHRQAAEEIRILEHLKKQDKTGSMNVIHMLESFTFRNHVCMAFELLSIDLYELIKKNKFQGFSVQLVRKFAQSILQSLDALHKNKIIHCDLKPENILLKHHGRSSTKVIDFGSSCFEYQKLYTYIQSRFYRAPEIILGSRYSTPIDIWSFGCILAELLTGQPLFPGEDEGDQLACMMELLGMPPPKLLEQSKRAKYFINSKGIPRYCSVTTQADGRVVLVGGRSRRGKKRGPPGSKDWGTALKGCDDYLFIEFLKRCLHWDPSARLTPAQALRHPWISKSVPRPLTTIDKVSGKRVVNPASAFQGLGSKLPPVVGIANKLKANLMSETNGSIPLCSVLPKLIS
Protocol: as §1, §2, §3, §4, §5

[3] = biological target: T3, DYRK2 (Homo sapiens, UniProt Q92630); details: ATP 40 μM; FITC-labeled DYRKtide peptide substrate; room temperature 1 hour; read-out: Inhibitory Activity DYRK2 (IC50 class)
T3 construct: purchased Carna Biosciences, Inc. 04-132
T3 sequence (Q92630 1-601): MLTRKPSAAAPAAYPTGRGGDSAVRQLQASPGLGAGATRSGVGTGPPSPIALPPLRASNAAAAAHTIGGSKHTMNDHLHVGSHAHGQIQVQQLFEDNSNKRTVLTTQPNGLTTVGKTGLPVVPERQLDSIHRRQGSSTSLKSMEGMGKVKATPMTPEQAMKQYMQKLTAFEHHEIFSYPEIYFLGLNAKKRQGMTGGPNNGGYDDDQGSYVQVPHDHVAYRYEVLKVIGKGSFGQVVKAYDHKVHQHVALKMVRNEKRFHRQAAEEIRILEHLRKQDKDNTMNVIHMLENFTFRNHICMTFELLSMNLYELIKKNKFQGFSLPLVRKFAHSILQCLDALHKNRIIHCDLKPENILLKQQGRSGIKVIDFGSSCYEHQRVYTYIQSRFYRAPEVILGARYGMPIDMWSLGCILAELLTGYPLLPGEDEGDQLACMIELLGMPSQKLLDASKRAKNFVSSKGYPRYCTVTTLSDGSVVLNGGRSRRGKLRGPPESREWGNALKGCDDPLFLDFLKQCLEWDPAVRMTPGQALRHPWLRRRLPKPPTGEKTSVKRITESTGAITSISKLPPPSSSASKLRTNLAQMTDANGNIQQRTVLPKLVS
Protocol: as §1, §2, §3, §4, §5

[4] = biological target: T4, DYRK1B (Homo sapiens, UniProt Q9Y463); details: ATP 200 μM; FITC-labeled DYRKtide peptide substrate; room temperature 1 hour; read-out: Inhibitory Activity DYRK1B (IC50 class)
T4 construct: purchased Carna Biosciences, Inc. 04-131
T4 sequence (Q9Y463 whole entry): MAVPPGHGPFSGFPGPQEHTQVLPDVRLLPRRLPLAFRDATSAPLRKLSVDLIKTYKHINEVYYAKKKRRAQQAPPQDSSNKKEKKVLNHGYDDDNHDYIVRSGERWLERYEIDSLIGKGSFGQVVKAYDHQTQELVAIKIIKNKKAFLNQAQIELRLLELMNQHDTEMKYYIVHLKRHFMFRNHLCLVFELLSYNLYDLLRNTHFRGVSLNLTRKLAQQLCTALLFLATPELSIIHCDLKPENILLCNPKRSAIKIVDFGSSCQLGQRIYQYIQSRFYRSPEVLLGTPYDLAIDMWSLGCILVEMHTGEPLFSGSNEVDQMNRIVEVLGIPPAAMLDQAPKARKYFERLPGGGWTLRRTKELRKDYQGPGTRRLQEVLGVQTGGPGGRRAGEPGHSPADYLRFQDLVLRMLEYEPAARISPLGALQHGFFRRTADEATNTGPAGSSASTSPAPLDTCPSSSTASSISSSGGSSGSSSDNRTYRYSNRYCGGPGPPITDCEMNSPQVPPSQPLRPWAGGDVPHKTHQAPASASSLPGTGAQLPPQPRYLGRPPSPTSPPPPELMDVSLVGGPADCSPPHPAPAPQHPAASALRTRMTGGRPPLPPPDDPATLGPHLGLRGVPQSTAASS
Protocol: as §1, §2, §3, §4, §5

SMILES | IC50 [1] [µM] | IC50 [2] [µM] | IC50 [3] [µM] | IC50 [4] [µM]
CC#CC1CCNC(=O)N1c1nc2c3c(ccc2s1)OCCO3 (racemic) [Example 1, (RS)-1-(7,8-dihydro-[1,4]dioxino[2′,3′:5,6]benzo[1,2-d]thiazol-2-yl)-6-(prop-1-yn-1-yl)tetrahydropyrimidin-2(1H)-one] | < 0.01 | > 1 | > 1 | –
CC#CC1N(c2nc3c4c(ccc3s2)OCC4)C(=O)NC12CC2 (racemic) [Example 2, (RS)-6-(7,8-dihydrobenzofuro[4,5-d]thiazol-2-yl)-7-(prop-1-yn-1-yl)-4,6-diazaspiro[2.4]heptan-5-one] | < 0.01 | 0.1 to 1 | 0.1 to 1 | –
CC#CC1CCNC(=O)N1c1nc2c3c(ccc2s1)OCC3 (racemic) [Example 3, (RS)-3-(7,8-dihydrobenzofuro[4,5-d]thiazol-2-yl)-4-(prop-1-yn-1-yl)-tetrahydropyrimidin-2(1H)-one] | < 0.01 | 0.1 to 1 | 0.1 to 1 | –
CC#CC1N(c2nc3c4c(ccc3s2)OCCO4)C(=O)NC12CC2 (racemic) [Example 4, (RS)-6-(7,8-dihydro-[1,4]dioxyno[2′,3′:5,6]benzo[1,2-d]thiazol-2-yl)-7-(prop-1-yn-1-yl)-4,6-diazaspiro[2.4]heptan-5-one] | – | 0.1 to 1 | 0.1 to 1 | –
CC#CC1N(c2nc3c4c(ccc3s2)OCC4)C(=O)NC12COC2 (racemic) [Example 9, (RS)-7-(7,8-dihydro-benzofuro[4,5-d]thiazol-2-yl)-8-(prop-1-yn-1-yl)-2-oxa-5,7-diazaspiro[3.4]octan-6-one] | 0.01 to 0.1 | 0.1 to 1 | > 1 | –
CC#CC1CCNC(=O)N1c1nc2c3c(ccc2s1)OCCO3 (single isomer, unassigned) [Example 6, 1-(7,8-dihydro-[1,4]dioxyno[2′,3′:5,6]benzo[1,2-d]thiazol-2-yl)-6-(prop-1-yn-1-yl)tetrahydropyrimidin-2(1H)-one] | 0.1 to 1 | > 1 | > 1 | –
CC#CC1N(c2nc3c4c(ccc3s2)OCCO4)C(=O)NC12CC2 (single isomer, unassigned) [Example 7, 6-(7,8-dihydro-[1,4]dioxyno[2′,3′:5,6]benzo[1,2-d]thiazol-2-yl)-7-(prop-1-yn-1-yl)-4,6-diazaspiro[2.4]heptan-5-one] | – | 0.1 to 1 | 0.1 to 1 | < 0.01
CC#CC1N(c2nc3c4c(ccc3s2)OCCO4)C(=O)NC12CC2 (single isomer, unassigned) [Example 8, 6-(7,8-dihydro-[1,4]dioxyno[2′,3′:5,6]benzo[1,2-d]thiazol-2-yl)-7-(prop-1-yn-1-yl)-4,6-diazaspiro[2.4]heptan-5-one] | – | > 1 | > 1 | –
CC#CC1N(c2nc3c4c(ccc3s2)OCC4)C(=O)NC12CC2 (single isomer, unassigned) [Example 18, 6-(7,8-dihydrobenzofuro[4,5-d]thiazol-2-yl)-7-(prop-1-yn-1-yl)-4,6-diazaspiro[2.4]heptan-5-one] | < 0.01 | 0.01 to 0.1 | 0.1 to 1 | –
CC#CC1N(c2nc3c4c(ccc3s2)OCC4)C(=O)NC12CC2 (single isomer, unassigned) [Example 19, 6-(7,8-dihydrobenzofuro[4,5-d]thiazol-2-yl)-7-(prop-1-yn-1-yl)-4,6-diazaspiro[2.4]heptan-5-one] | > 1 | > 1 | > 1 | –
CC#CC1N(c2nc3c4c(ccc3s2)OCC4)C(=O)NC12CCC2 (single isomer, unassigned) [Example 20, 7-(7,8-dihydrobenzofuro[4,5-d]thiazol-2-yl)-8-(prop-1-yn-1-yl)-5,7-diazaspiro[3.4]octan-6-one] | < 0.01 | 0.1 to 1 | > 1 | –
CC#CC1N(c2nc3c4c(ccc3s2)OCC4)C(=O)NC12CCC2 (single isomer, unassigned) [Example 21, 7-(7,8-dihydrobenzofuro[4,5-d]thiazol-2-yl)-8-(prop-1-yn-1-yl)-5,7-diazaspiro[3.4]octan-6-one] | 0.1 to 1 | > 1 | > 1 | –
CC#CC1N(c2nc3c4c(ccc3s2)OCC4)C(=O)NC12CCCC2 (single isomer, unassigned) [Example 22, 3-(7,8-dihydrobenzofuro[4,5-d]thiazol-2-yl)-4-(prop-1-yn-1-yl)-1,3-diazaspiro[4.4]nonan-2-one] | – | 0.1 to 1 | > 1 | –
CC#CC1N(c2nc3c4c(ccc3s2)OCC4)C(=O)NC12CCCC2 (single isomer, unassigned) [Example 23, 3-(7,8-dihydrobenzofuro[4,5-d]thiazol-2-yl)-4-(prop-1-yn-1-yl)-1,3-diazaspiro[4.4]nonan-2-one] | – | > 1 | > 1 | –
CC#C[C@@H]1[C@H](C)CNC(=O)N1c1nc2c3c(ccc2s1)OCC3 (stereo in doubt) [Example 10, (5R*,6S*)-1-(7,8-dihydrobenzofuro[4,5-d]thiazol-2-yl)-5-methyl-6-(prop-1-yn-1-yl)tetrahydropyrimidin-2(1H)-one] | – | > 1 | > 1 | –
CC#C[C@@H]1[C@@H](C)CNC(=O)N1c1nc2c3c(ccc2s1)OCC3 (stereo in doubt) [Example 11, (5S*, 6S*)-1-(7,8-dihydrobenzofuro[4,5-d]thiazol-2-yl)-5-methyl-6-(prop-1-yn-1-yl)tetrahydropyrimidin-2(1H)-one] | – | > 1 | > 1 | –
CC#C[C@H]1[C@@H](C)CNC(=O)N1c1nc2c3c(ccc2s1)OCC3 (stereo in doubt) [Example 12, (5S*,6R*)-1-(7,8-dihydrobenzofuro[4,5-d]thiazol-2-yl)-5-methyl-6-(prop-1-yn-1-yl)tetrahydropyrimidin-2(1H)-one] | – | > 1 | > 1 | 0.1 to 1
